Measurements from publication PMC10494213 (iScience, 2023).
“Also recorded” adds a separate entry of the source.

Key:
[1] = cited from earlier work
[2] = Uptake of CMZ in zebrafish muscle during 7-day water exposure; format: in vivo, zebrafish (Danio rerio); conditions: male, other: water exposure (waterborne); for concentration at 7 d: muscle; for Kp at 7 d: muscle/plasma
[3] = Measured fish plasma concentration; format: in vivo, zebrafish (Danio rerio); conditions: for Measured FPC/Predicted FPC / Measured FPC: 7-day exposure; for Measured FPC: mean ± SD, n = 3
zebrafish larvae = assay: Zebrafish larval motor behavior; format: in vivo; conditions: 7 days exposure
spermatozoa = conditions: 2.0 and 20 mg/L; cited from earlier work
GABA = conditions: zebrafish embryos, CMZ 1, 10, 100 μg/L; cited from earlier work
Glu = conditions: zebrafish embryos, CMZ 1, 10, 100 μg/L; cited from earlier work
[4] = test system: zebrafish embryos and larvae; conditions: 1 μg/L; cited from earlier work
[5] = test system: acetylcholinesterase (AChE); assay: AChE in whole zebrafish by ELISA after 7-day CMZ exposure; format: in vivo; conditions: 7-day exposure 1, 10, 100, 1000 μg/L vs control group
abat = assay: Real-time PCR of neurotransmitter-related gene abat; format: in vivo, zebrafish; conditions: seven days, four concentrations (1, 10, 100, 1000 μg/L) vs control, p<0.05
glutamic acid (Glu) = assay: Glu level in whole zebrafish by ELISA after 7-day CMZ exposure; format: in vivo; conditions: seven days of CMZ exposure vs control group (p<0.05; 1000 μg/L p<0.01)
[6] = human; cited from earlier work
[7] = test system: gamma-aminobutyric acid (GABA); assay: GABA level in whole zebrafish by ELISA after 7-day CMZ exposure; format: in vivo; conditions: seven days of CMZ exposure vs control group (p<0.05; 1000 μg/L p<0.01)
AChE = conditions: muscle (10000 μg/L) and head (10 and 10000 μg/L), exposure of 63 days, p<0.05; cited from earlier work
acetylcholine (ACh) = assay: ACh level in whole zebrafish by ELISA after 7-day CMZ exposure; format: in vivo; conditions: 7-day exposure 1, 10, 100, 1000 μg/L vs control group
[8] = carp, Coote natural Marsh in Canada; cited from earlier work
fish = conditions: cited from earlier work
[9] = EEC 3, 10, 30 μg/L; cited from earlier work

CCC(=O)OCC(=O)[C@@]1(OC(=O)CC)[C@@H](C)C[C@H]2[C@@H]3CCC4=CC(=O)C=C[C@]4(C)[C@@]3(Cl)[C@@H](O)C[C@@]21C [Beclomethasone Dipropionate, beclomethasone dipropionate]
log Kow [1]: 3.69

NC(=O)N1c2ccccc2C=Cc2ccccc21 [CMZ, Carbamazepine]
concentration at 7 d ([2]; 10 μg/L): 35.4 ± 7.9 ng/g | concentration at 7 d ([2]; 100 μg/L): 420 ± 77.5 ng/g | concentration at 7 d ([2]; 1000 μg/L): 2330 ± 127 ng/g | Kp at 7 d ([2]; 10 μg/L): 0.26 ± 0.06 | Kp at 7 d ([2]; 100 μg/L): 0.14 ± 0.03 | Kp at 7 d ([2]; 1000 μg/L): 0.54 ± 0.03 | Measured FPC/Predicted FPC ([3]; external 1 μg/L): 1.84 ± 0.27 | Measured FPC ([3]; external 1 μg/L (nominal)): 25.47 ± 3.78 µg/L | Measured FPC ([3]; external 10 μg/L (nominal)): 1311.10 ± 80.26 µg/L | Measured FPC/Predicted FPC ([3]; external 100 μg/L): 2.14 ± 0.08 | Measured FPC ([3]; external 100 μg/L (nominal)): 2953.30 ± 109.20 µg/L | Measured FPC/Predicted FPC ([3]; external 1000 μg/L): 0.31 ± 0.01 | measured FPC value as share of the predicted value ([3]; external 1000 μg/L): 31.05% | concentration at 7 d ([3]; male, AB, zebrafish, plasma, other: water exposure (waterborne), corresponding FPCs, low ambient exposure 1 and 10 μg/L): 25.5 to 1310 ng/mL | ER values ([3]; ratio of HTPC and FSSPC, Equation 3, all exposure concentrations): < 1000 | total movement distance of the larvae (zebrafish larvae; 1000 μg/L, p<0.05): significantly higher than that of the control group | total distance traveled by larvae (zebrafish larvae; 1, 10, 100 μg/L, p>0.05): slightly lower than that of the control group, but there was no significant difference | percentage of spermatozoa motile and velocity (spermatozoa): significantly reduce | GABA concentration (GABA): increased | Glu concentration (Glu): reduced | movement and rest percentage of zebrafish embryos and larvae [4]: significantly affected | level of AChE [5]: gradually decreased; also recorded: significantly decreased | expression of the abat gene (abat): significantly down-regulated | Glu level (glutamic acid (Glu)): appreciably increased | maximum HTPC [6]: 12 mg/L | GABA level [7]: appreciably increased | AChE activity (AChE): considerably increased | level of ACh (acetylcholine (ACh)): gradually decreased; also recorded: significantly decreased | Dlipw ([1]; pH 7.4, ref http://www.chemspider.com/Chemical): 2.92

C#C[C@]1(O)CC[C@H]2[C@@H]3CCC4=CC(=O)CC[C@@H]4[C@H]3CC[C@@]21CC [Levonorgestrel]
log Kow [1]: 3.72

CCN(CC)C(=O)c1cccc(C)c1 [N,N-diethyl-m-toluamide]
measured BCFs relative to the predicted BCFs [8]: ≤ 3 times

O=C1Nc2ccc(Cl)cc2C(c2ccccc2)=NC1O (stereo not shown) [Oxazepam]
behavior in the novel tank diving test (fish; fish exposed to 4.7 μg/L): statistically significant behavioral effect

CN[C@H]1CC[C@@H](c2ccc(Cl)c(Cl)c2)c2ccccc21 [Sertraline]
shelter-seeking behavior (fish; when the FPC exceeded the human therapeutic threshold): statistically significant reductions | Predicted FPC vs Measured FPC [9]: very close

O=C1NC(=O)C(c2ccccc2)(c2ccccc2)N1 [phenytoin]
measured BCFs relative to the predicted BCFs [8]: ≤ 3 times

O=C(Nc1ccc(Cl)cc1)Nc1ccc(Cl)c(Cl)c1 [triclocarban]
measured BCFs relative to the predicted BCFs [8]: ≤ 3 times
